According to US6660320B1, “Process for producing an antioxidant extract from the bearberry plant” (University of Saskatchewan Technologies Inc., priority 1999, dated 2003):

Experiments:
[1] = β-carotene-linoleate model system; conditions: 0.5 mg of BHA per 5 mL emulsion, 50° C., FIG. 1
Experimental: The antioxidant activity of the bearberry extract was evaluated using a β-carotene-linoleate model system (Miller, 1971). Briefly, 2-mg quantities of β-carotene were dissolved in 10 mL of chloroform. One millilitre of this solution was then pipetted into a small round-bottom flask. After removing the chloroform using a rotary evaporator, 20 mg of purified linoleic acid, 200 mg of Tween 40 emulsifier and 50 mL of aerated, distilled water were added to the flask with vigorous stirring. Aliquots (5 mL) of prepared emulsion were transferred to a series of tubes containing 2 mg of extract or 0.5 mg of BHA. As soon as the emulsion was added to each tube, the zero time absorbance was read at 470 nm (nanometers) against a reagent blank using a spectrophotometer. Subsequent absorbance readings were recorded at 15-minute intervals by keeping the samples in water bath at 50° C. until the color of β-carotene disappeared.

[2] = meat model system, TBARS of cooked comminuted pork
Experimental: The efficacy of the bearberry extract was tested in a meat model system. Pork cushions were obtained from Mitchell's Gourmet Foods, Ltd. (Saskatoon, SK). The meat was ground two times through a ⅛-inch plate using a Biro grinder/food mixer (AMFG Model 24, Marblehead, Ohio). Pork from the meat block was transferred to Mason jars and mixed with 20% (w/w) distilled water and various additives. Meat systems were thermal processed in an 85° C. thermostated water bath with occasional stirring by a glass rod until an internal temperature of 75±1° C. was reached. The meat systems were cooled to room temperature, homogenized in an Osterizer (Sunbeam Corporation [Canada] Ltd., Toronto, ON) blender for 30 seconds, transferred to Whirl Pak bags (Systems Plus, New Hamburg, ON) and refrigerated at 4° C. until used.
(§1) Thiobarbituric reactive substances (TBARS) were determined for the bearberry extract (Witte et al.,1970, and Bedinghaus and Ockerman, 1995). Briefly, a 5-g portion of each sample was transferred to a stomacher bag in which 50 mL of a 20% (w/v) TCA and 1.6% (v/v) phosphoric acid solution were added. Each sample was stomached (Stomacher Lab-Blender 400, Model BA6021, A. J. Seward, Co., Bury St. Edmunds, UK) for 2 minutes and then 50 mL of cold distilled water were added. After blending for an additional minute, each sample was filtered through Whatman #1 filter paper into a 100-mL volumetric flask. Each flask was filled to mark with distilled water/TCA solution (1:1 v/v) and its contents were mixed well. Five-mL aliquots from each sample were pipetted to polypropylene conical centrifuge tubes (VWR Canlab, Mississauga, ON) to which an equivalent volume of a 0.02 M aqueous TBA reagent was added. Tubes were capped and heated in a boiling water bath for 35 minutes, and then cooled in an ice bath. Absorbance measurements of the pink-colored chromogen were made at 532 nm against a reagent blank using a spectrophotometer. A ‘k’ factor of 20.1 was determined from a calibration curve based on addition of known quantities of the malonaldehyde precursor, 1,1,3,3-tetramethoxypropane, to cooked meat samples prior to extraction and an average recovery of 85.5% was found.

[3] = TBA analysis of cooked pork patties; conditions: 50 ppm TBHQ; 200 ppm bearberry extract; both formulations, stored at 4° C.
Experimental: as §1, with “Tubes were capped and heated in a boiling water bath for 35 minutes, and then cooled in an ice bath.” left out, “found. […]” for “found.”
TBA reactive substances were determined in cooked pork patties over the course of the study as has been previously described.

For `COc1ccc(O)c(C(C)(C)C)c1` [BHA, butylated hydroxyanisole], the “inhibition of β-carotene consumption throughout the incubation” value [1] was “completely inhibited β-carotene consumption”.
In the case of `CC(C)(C)c1cc(O)ccc1O` [TBHQ, tert-butylhydroquinone], the “TBARS Values” ([2]; Table 3, 50 ppm, 1 day of storage at 4° C.) is reported as 0.10 mg malonaldehyde eq./kg sample, the “TBARS Values” ([2]; Table 3, 50 ppm, 3 days of storage at 4° C.) is reported as 0.10 mg malonaldehyde eq./kg sample and the “TBARS Values” ([2]; Table 3, 50 ppm, 5 days of storage at 4° C.) is reported as 0.10 mg malonaldehyde eq./kg sample. The “TBARS Values” ([2]; Table 3, 50 ppm, 7 days of storage at 4° C.) was 0.20 mg malonaldehyde eq./kg sample, the “TBARS Values” ([2]; Table 3, 50 ppm, 14 days of storage at 4° C.) was 0.34 mg malonaldehyde eq./kg sample and the “TBARS Values” ([2]; Table 4, 50 ppm, 1 day of storage at 4° C.) was 0.10 mg malonaldehyde eq./kg sample. The “TBARS Values” ([2]; Table 4, 50 ppm, 3 days of storage at 4° C.) was 0.10 mg malonaldehyde eq./kg sample, the “TBARS Values” ([2]; Table 4, 50 ppm, 5 days of storage at 4° C.) was 0.10 mg malonaldehyde eq./kg sample and the “TBARS Values” ([2]; Table 4, 50 ppm, 7 days of storage at 4° C.) was 0.23 mg malonaldehyde eq./kg sample. For the same molecule, the “TBARS Values” ([2]; Table 4, 50 ppm, 14 days of storage at 4° C.) was 0.45 mg malonaldehyde eq./kg sample and the “TBA results, lipid oxidation during storage” value [3] was “retarded lipid oxidation during storage”.
